Values quoted from earlier work, collected in patent publication US7812020B2, “Substituted pyridine derivatives” (priority 2005, dated 2010).

Experiments:
[1] = tested on: animal models of anxiety-like behaviour; settings: in vivo
[2] = tested on: amygdala kindling model; settings: complex partial seizures
[3] = tested on: epileptic patients; settings: clinical trials
[4] = tested on: K(+) current in neuronal cells
[5] = tested on: animal models of neuropathic pain; settings: in vivo
[6] = tested on: rat
[7] = tested on: rats and mice; settings: oral and intraperitoneal administration; electrically induced seizures, pentylenetetrazole, picrotoxin, NMDA, DBA/2 mouse
[8] = tested on: rat; settings: following kainic acid-induced status epilepticus in the rat

CCOC(=O)Nc1ccc(NCc2ccc(F)cc2)cc1N [Retigabine, N-(2-amino-4-(4-fluorobenzylamino)-phenyl)carbamic acid ethyl ester]
activity in anxiety-like behaviour models [1]: active | activity in amygdala kindling model [2]: active | incidence of seizures [3]: effectiveness in reducing the incidence of seizures | effect on K(+) current [4]: activate a K(+) current | effect in neuropathic pain models [5]: beneficial | progression of hippocampal kindling [6]: delay the progression of hippocampal kindling | anticonvulsant activity [7]: active | limbic neurodegeneration and markers of apoptosis [8]: prevent limbic neurodegeneration and the expression of markers of apoptosis
